# Ends that are not written are not given here.
# Legend:
# Type in all cases: cell-based, human
# [1] = system: MKN-28 cells; conditions: 48 h
# Description: (§1) For cell viability assays, cells were seeded into 96-well plates overnight to attach them to the plates, and then treated with GLUP for 48 h. Cells incubated for indicated periods of time were analyzed using an ATP-based CellTiter-Lumi^TM Plus kit (Beyotime) according to the manufacturer’s instructions. The intracellular ATP contents were measured using a BioTek Synergy^TM NEO multi-detector microplate reader (Thermo). Cell viability was calculated using the equation cell viability (%) = [[value (test) − value (blank)] × [value (control) − value (blank)]] −1 × 100.
# [2] = system: MKN-45 cells; conditions: 48 h
# Description: as §1
# [3] = system: GES-1 cells; conditions: 48 h
# Description: as §1
# [4] = system: MGC-803 cells; conditions: 48 h
# Description: as §1
# [5] = system: BGC-823 cells; conditions: 48 h
# Description: as §1
# [6] = system: HGC-27 cells
# Description: as §1
# [7] = system: SH-10-TC cells; conditions: 48 h
# Description: as §1
# [8] = system: SNU-216 cells; conditions: 48 h
# Description: as §1
# [9] = system: AGS cells; conditions: 48 h
# Description: as §1
substance,measurement,setting,value
RRVCVHFHFSLSLR-NH2 (C-terminus assumed) [glup],IC50,[1],6.7 µg/mL
same,IC50,[2],7.3 µg/mL
same,IC50,[3],13.1 µg/mL
same,IC50,[4],2.5 µg/mL
same,IC50,[5],26.1 µg/mL
same,Cell death,"[6]; HGC-27, 0.1 µg/ml GLUP, 48 h (peer review file, Figure R22C)",~60%
same,Suppression of cell growth with or without YAP (5SA) overexpression,"[6]; HGC-27, 0.1/1 µg/ml GLUP (peer review file, Figure R23)",regardless of YAP (5SA) expression
same,IC50,[7],26.3 µg/mL
same,IC50,[8],23.4 µg/mL
same,IC50,[9],34 µg/mL

# Source: PMC11574045, “A cofactor-induced repressive type of transcription factor condensation can be induced by synthetic peptides to suppress tumorigenesis” (The EMBO Journal, 2024)
